Here are results for twelve compounds from patent publication US20230133630A1, “Oral Care Compositions Comprising Dicarboxylic Acid” (The Procter & Gamble Company, priority 2021, published 2023).

What all share (type): cell-based
For experiment [1], the system named is human gingival keratinocytes (Gie-No3-B11), E. coli LPS. In words: Infection of human gingival keratinocytes by fluorescent E. coli LPS. On the procedure:
(§1) One method to assess the potential of dicarboxylic acids to reduce gum disease and improve health was to assess the infection potential of gingival keratinocytes. In this model, human gingival keratinocytes (Gie-No3-B11, purchased from Creative Bioarray, Shirley, N.Y.) were maintained in a 37° C. incubator with 5% CO2. Cells were seeded in 100 μL cell suspension to each well (2K cells/well). Cells were treated 24 hours after seeding. Growth medium alone or growth medium with solvent vehicle was used as a negative control. Positive controls are either fluorescent E. coli LPS, or fluorescent S. minnesota LPS (https://corporate.thermofisher.com/us/en/index.html), fluorescence-label P. gingivalis outer membrane vesicles (OMV) with or without medium or solvent vehicle. P. gingivalis OMV was isolated following procedures described by Cecil et al. 2016 (Jessica D. Cecil, Neil M. O'Brien-Simpson, Jason C. Lenzo, James A. Holden, Yu-Yen Chen, William Singleton, Katelyn Gause, Yan Yan, Frank Caruso, and Eric C. Reynolds. Differential Responses of Pattern Recognition Receptors to Outer Membrane Vesicles of Three Periodontal Pathogens. iPLoS One. 2016; 11(4): e0151967). The OMV was stained with Lipophilic Tracer DiO following manufacturer's instruction (https://corporate.thermofisher.com/us/en/index.html). Compounds were dissolved in water and diluted in culture medium (all dilutions are deep yellow, or very acidic). All compounds and fluorescent LPS or OMV were added to cells at the same time. It is worth mentioning that cell culture medium changed immediately following adding the compounds from pink (pH7-7.4) to deep yellow (acidic). Images were taken in four sites in each well at a 3-hour interval over 48 to 120 hours in Incucyte® Live-Cell Analysis Systems (https://www.sartorius.com/en/products/live-cell-imaging-analysis/live-cell-analysis-instruments#id-789214). Data were processed and analyzed using R-programs.

The test system of experiment [2] is human gingival keratinocytes (Gie-No3-B11), P. gingivalis OMV. The experiment can be described thus: Infection of human gingival keratinocytes by fluorescence-label P. gingivalis outer membrane vesicles (OMV). The conditions noted are these: for inhibition at 100000 µM: concentration 100 mM. How it is done: as §1
Experiment [3] deals with human gingival keratinocytes (Gie-No3-B11), S. minnesota LPS. The experiment can be described thus: Infection of human gingival keratinocytes by fluorescent S. minnesota LPS. How it is done: as §1
[4] abbreviates: Homo sapiens, Keratinocyte, concentration 5 mM.
Setting [5] is: Homo sapiens, Keratinocyte, concentration 11.11 mM.
Setting [6] is: Homo sapiens, Keratinocyte, concentration 7.5 mM.
Where [7] appears, read: Homo sapiens, Keratinocyte, concentration 125 μM.

In the case of `O=C(O)/C=C\C(=O)O` [Maleic_acid, maleic acid], in experiment [1] (setting [4]), the inhibition (usually the share of the control response that was lost under treatment) at 5000 µM came to 63.8%. The compound further gave an inhibition at 100000 µM in experiment [2] (Homo sapiens, Keratinocyte) of 83.3%. The inhibition at 3000 µM in experiment [3] (Homo sapiens, Keratinocyte, concentration 3 mM) worked out at 73.8%.
Regarding `O=C(O)CCC(=O)O` [Succinic_acid, succinic acid], in experiment [2] (Homo sapiens, Keratinocyte, concentration 2 mM), the inhibition at 2000 µM is 73%. In experiment [3] (Homo sapiens, Keratinocyte, concentration 1 mM), this compound gave an inhibition at 1000 µM of 42.3%.
Turning to `O=C(O)C(O)C(O)C(=O)O` (stereo not drawn) [DL_Tartaric_acid, DL tartaric acid], the Inhibition % came to 57.7% in experiment [2] (concentration 1 mM) and 26.4% in experiment [3] (concentration 1 mM).
In experiment [1] (setting [4]), `O=C(O)CC(=O)O` [Malonic_acid, malonic acid] gave an inhibition at 5000 µM of 35.9%. Besides, at 11110 µM the inhibition in experiment [2] (setting [5]) was 69.3%.
For the compound `O=C(O)/C=C/C(=O)O` [Fumaric_acid, fumaric acid], the inhibition at 7500 µM in experiment [1] (setting [6]) worked out at 31%; in experiment [3] (setting [6]), 71.9%. The inhibition at 33330 µM in experiment [2] (Homo sapiens, Keratinocyte, concentration 33.33 mM) amounted to 53.1%.
Regarding `CC(C(=O)O)C(=O)O` [Methyl_malonic_acid, methylmalonic acid], in experiment [1] (setting [4]), the inhibition at 5000 µM came out at 30.7%. Further, testing at 11110 µM in experiment [2] (setting [5]) gave an inhibition of 63.6%. In addition, at 2500 µM the inhibition in experiment [3] (Homo sapiens, Keratinocyte, concentration 2.5 mM) was 28.7%.
With `CC(C)(C(=O)O)C(=O)O` [Dimethylmalonic_Acid, dimethylmalonic acid], testing at 5000 µM in experiment [1] (setting [4]) gave an inhibition of 33.8%. The same compound returned an inhibition at 11110 µM in experiment [2] (setting [5]) of 81.3%. Further, in experiment [3] (setting [6]), 7500 µM produced 54.5% inhibition.
Take `O.O=C([O-])C(=O)[O-].[K+].[K+]` [Potassium_oxalate_monohydrate, Potassium Oxalate Monohydrate]: the Inhibition % in experiment [1] (concentration 125 μM) is 21.5%; in experiment [3] (concentration 125 μM), 41.5%.
Consider `O=C(O)[C@H](O)[C@@H](O)C(=O)O` [L_+_Tartaric_acid, L-tartaric acid], for which the Inhibition % came out at 73.6% in experiment [2] (concentration 2.5 mM) and 52.1% in experiment [3] (concentration 10 mM).
On to `O=C(O)C(=O)O` [Oxalic_acid, oxalic acid], for which the inhibition at 125 µM in experiment [1] (setting [7]) came out at 38.2%; in experiment [3] (setting [7]) it was 22.5%. 100000 µM produced 32.8% inhibition in experiment [2] (Homo sapiens, Keratinocyte).
`O=C(O)CC(O)C(=O)O` (stereo not drawn) [DL_Maleic_acid]: the Inhibition % in experiment [1] (concentration 5 mM) came out at 36.3%; in experiment [2] (concentration 11.11 mM) it was 62.2%; in experiment [3] (concentration 7.5 mM), 59.9%.
Turning to `O=C(O)C(=O)C(=O)O` [Sodium_mesoxalate_monohydrate, Sodium Mesoxalate Monohydrate], testing at 5000 µM in experiment [2] (setting [4]) gave an inhibition of 44.3%.
